Patent publication US20240342156A1, “METHODS FOR TREATING PAIN” (Xenon Pharmaceuticals Inc., priority 2019, published 2024)

Assays:
[1] = tested on: rat spinal nerve ligation (SNL)/Chung model of neuropathic pain; assay: Spinal nerve ligation (SNL)/Chung model, tactile allodynia, electronic von Frey test on lesioned paw; format: in vivo
Procedure: (§1) Objective: The efficacy of Compound A was assessed using the rat spinal nerve ligation (SNL)/Chung model of neuropathic pain. The SNL model in rats was developed as described previously (Chung J M, Kim H K, Chung K. “Segmental spinal nerve ligation model of neuropathic pain.” Methods Mol. Med. 99 (2004) 35-45).
Study Design. Briefly, on Day 0, von Frey and cold plate tests were used for baseline measurements of tactile and cold allodynia respectively. Post-baseline measurements, rats (171-209 g male Sprague Dawley) were anesthetized and an incision at the L4-S2 level was performed to expose the left L5 nerve. A ligature was tied tightly around the L5 nerve (Chung et al.; R. Dost et al., “The anti-hyperalgesic activity of Retigabine is mediated by KCNQ potassium channel activation.” Naunyn-Schmiedeberg's Arch. Pharmacol. 369 (2004) 382-390; Gordon Blackburn-Munro et al., “The anticonvulsant retigabine attenuates nociceptive behaviors in rat models of persistent and neuropathic pain.” Eur. J Pharmacol. 460 (2003) 109-116; and Wu Y J et al., “Discovery of (S,E)-3-(2-fluorophenyl)-N-(1-(3-(pyridin-3-yloxy)phenyl)ethyl)-acrylamide as a potent and efficacious KCNQ2 (Kv7.2) opener for the treatment of neuropathic pain.” Bioorg Med. Chem. Lett. 23 (2013) 6188-91). The wound was then sutured and the rats were allowed to recover. On Day 13, post-surgery baselines for tactile and cold allodynia were measured to verify neuropathic pain. Animals were assigned to treatment groups based on the post-surgery baseline score.
(§2) Dosing: For efficacy testing, Compound A was dosed orally once a day for 5 consecutive days from Day 14-18.
Rats were placed under an inverted acrylic plastic box on a grid floor. The tip of an electronic von Frey probe was then applied with increasing force to the surgery hind paw and the force required to induce paw-withdrawal was automatically recorded. The procedure was carried out 3 times and the mean paw withdrawal force was calculated. The experimenter was double blinded to treatment.

[2] = tested on: rat spinal nerve ligation (SNL)/Chung model of neuropathic pain; assay: Spinal nerve ligation (SNL)/Chung model, thermal allodynia, cold plate test on lesioned paw; format: in vivo
Procedure: as §1
Study Design. Briefly, on Day 0, von Frey and cold plate tests were used for baseline measurements of tactile and cold allodynia respectively. Post-baseline measurements, rats (171-209 g male Sprague Dawley) were anesthetized and an incision at the L4-S2 level was performed to expose the left L5 nerve. […] The wound was then sutured and the rats were allowed to recover. On Day 13, post-surgery baselines for tactile and cold allodynia were measured to verify neuropathic pain. Animals were assigned to treatment groups based on the post-surgery baseline score.
as §2
The cold plate apparatus was maintained at 4±1° C. and was surrounded by an acrylic glass enclosure. Rats were placed on the plate for a period of 5 minutes. The latency to 1st paw-withdrawal, total number of paw withdrawals, and total duration of withdrawal responses were recorded for the surgery hind paw.

[3] = Day 18 at 2 h, 8 mg/kg p.o. once daily Day 14-18
[4] = Day 18 at 2 h, 16 mg/kg p.o. once daily Day 14-18
[5] = Day 18 at 2 h, 24 mg/kg p.o. once daily Day 14-18

Cc1cc(N2CCc3cc(F)ccc3C2)cc(C)c1NC(=O)CC(C)(C)C [Compound A, N-[4-(6-fluoro-3,4-dihydro-TH-isoquinolin-2-yl)-2,6-dimethylphenyl]-3,3-dimethylbutanamide]
effect on the tactile allodynia endpoint ([1]; Day 14 and Day 18, compared to morphine): neither Compound A nor retigabine had much effect | Force inducing paw-withdrawal (g), Delta from baseline compared with Vehicle (p.o.), Δ ([1]; Day 14 at 2 h, 8 mg/kg p.o.): +6.7 g | Force inducing paw-withdrawal (g), Delta from baseline, Mean ± s.e.m. ([1]; Day 14 at 2 h, 8 mg/kg p.o.): +7.0 ± 2.5 g | Force inducing paw-withdrawal (g), Mean ± s.e.m. ([1]; Day 14 at 2 h, 8 mg/kg p.o.): 28.5 ± 3.4 g | Force inducing paw-withdrawal (g), Delta from baseline compared with Vehicle (p.o.), Δ ([1]; Day 14 at 2 h, 16 mg/kg p.o.): +5.1 g | Force inducing paw-withdrawal (g), Delta from baseline, Mean ± s.e.m. ([1]; Day 14 at 2 h, 16 mg/kg p.o.): +5.4 ± 2.1 g | Force inducing paw-withdrawal (g), Mean ± s.e.m. ([1]; Day 14 at 2 h, 16 mg/kg p.o.): 25.2 ± 1.9 g | Force inducing paw-withdrawal (g), Delta from baseline compared with Vehicle (p.o.), Δ ([1]; Day 14 at 2 h, 24 mg/kg p.o.): +7.2 g | Force inducing paw-withdrawal (g), Delta from baseline, Mean ± s.e.m. ([1]; Day 14 at 2 h, 24 mg/kg p.o.): +7.5 ± 3.1 g | Force inducing paw-withdrawal (g), Mean ± s.e.m. ([1]; Day 14 at 2 h, 24 mg/kg p.o.): 29.9 ± 2.9 g | Force inducing paw-withdrawal (g), Delta from baseline compared with Vehicle (p.o.), Δ [1, 3]: +7.8 g | Force inducing paw-withdrawal (g), Delta from baseline, Mean ± s.e.m. [1, 3]: +10.6 ± 3.5 g | Force inducing paw-withdrawal (g), Mean ± s.e.m. [1, 3]: 32.1 ± 3.6 g | Force inducing paw-withdrawal (g), Delta from baseline compared with Vehicle (p.o.), Δ [1, 4]: +2.6 g | Force inducing paw-withdrawal (g), Delta from baseline, Mean ± s.e.m. [1, 4]: +5.4 ± 2.1 g | Force inducing paw-withdrawal (g), Mean ± s.e.m. [1, 4]: 25.2 ± 2.0 g | Force inducing paw-withdrawal (g), Delta from baseline compared with Vehicle (p.o.), Δ [1, 5]: +8.7 g | Force inducing paw-withdrawal (g), Delta from baseline, Mean ± s.e.m. [1, 5]: +11.5 ± 3.0 g | Force inducing paw-withdrawal (g), Mean ± s.e.m. [1, 5]: 33.8 ± 3.6 g | Latency to first paw-withdrawal (s), Mean ± s.e.m. ([2]; Day 14 at 2 h, 8 mg/kg p.o.): 226.8 ± 29.4 s | Latency to first paw-withdrawal, compared with Vehicle (p.o.), Δ% ([2]; Day 14 at 2 h, 8 mg/kg p.o.): +74% | Number of withdrawal responses, Mean ± s.e.m. ([2]; Day 14 at 2 h, 8 mg/kg p.o.): 2.1 ± 0.8 | Number of withdrawal responses, compared with Vehicle (p.o.), Δ% ([2]; Day 14 at 2 h, 8 mg/kg p.o.): −79% | Total duration of withdrawal responses (s), Mean ± s.e.m. ([2]; Day 14 at 2 h, 8 mg/kg p.o.): 3.4 ± 3.4 s | Total duration of withdrawal responses, compared with Vehicle (p.o.), Δ% ([2]; Day 14 at 2 h, 8 mg/kg p.o.): +55% | Latency to first paw-withdrawal (s), Mean ± s.e.m. ([2]; Day 14 at 2 h, 16 mg/kg p.o.): 214.9 ± 29.2 s | Latency to first paw-withdrawal, compared with Vehicle (p.o.), Δ% ([2]; Day 14 at 2 h, 16 mg/kg p.o.): +65% | Number of withdrawal responses, Mean ± s.e.m. ([2]; Day 14 at 2 h, 16 mg/kg p.o.): 3.0 ± 1.7 | Number of withdrawal responses, compared with Vehicle (p.o.), Δ% ([2]; Day 14 at 2 h, 16 mg/kg p.o.): −70% | Total duration of withdrawal responses (s), Mean ± s.e.m. ([2]; Day 14 at 2 h, 16 mg/kg p.o.): 0.8 ± 0.7 s | Total duration of withdrawal responses, compared with Vehicle (p.o.), Δ% ([2]; Day 14 at 2 h, 16 mg/kg p.o.): −64% | Latency to first paw-withdrawal (s), Mean ± s.e.m. ([2]; Day 14 at 2 h, 24 mg/kg p.o.): 280.0 ± 20.0 s | Latency to first paw-withdrawal, compared with Vehicle (p.o.), Δ% ([2]; Day 14 at 2 h, 24 mg/kg p.o.): +115% | Number of withdrawal responses, Mean ± s.e.m. ([2]; Day 14 at 2 h, 24 mg/kg p.o.): 0.9 ± 0.9 | Number of withdrawal responses, compared with Vehicle (p.o.), Δ% ([2]; Day 14 at 2 h, 24 mg/kg p.o.): −91% | Total duration of withdrawal responses (s), Mean ± s.e.m. ([2]; Day 14 at 2 h, 24 mg/kg p.o.): 0.0 ± 0.0 s | Total duration of withdrawal responses, compared with Vehicle (p.o.), Δ% ([2]; Day 14 at 2 h, 24 mg/kg p.o.): −100% | thermal allodynia endpoint, comparison with morphine (128 mg/kg) ([2]; Day 18 (FIGS. 7-9), at both 16 and 24 mg/kg): outperformed morphine | Latency to first paw-withdrawal (s), Mean ± s.e.m. [2, 3]: 180.4 ± 26.5 s | Latency to first paw-withdrawal, compared with Vehicle (p.o.), Δ% [2, 3]: +92% | Number of withdrawal responses, Mean ± s.e.m. [2, 3]: 7.7 ± 2.8 | Number of withdrawal responses, compared with Vehicle (p.o.), Δ% [2, 3]: −29% | Total duration of withdrawal responses (s), Mean ± s.e.m. [2, 3]: 1.3 ± 0.9 s | Total duration of withdrawal responses, compared with Vehicle (p.o.), Δ% [2, 3]: −88% | Latency to first paw-withdrawal (s), Mean ± s.e.m. [2, 4]: 257.0 ± 23.5 s | Latency to first paw-withdrawal, compared with Vehicle (p.o.), Δ% [2, 4]: +173% | Number of withdrawal responses, Mean ± s.e.m. [2, 4]: 1.3 ± 2.8 | Number of withdrawal responses, compared with Vehicle (p.o.), Δ% [2, 4]: −88% | Total duration of withdrawal responses (s), Mean ± s.e.m. [2, 4]: 0.0 ± 0.0 s | Total duration of withdrawal responses, compared with Vehicle (p.o.), Δ% [2, 4]: −100% | Latency to first paw-withdrawal (s), Mean ± s.e.m. [2, 5]: 263.8 ± 24.3 s | Latency to first paw-withdrawal, compared with Vehicle (p.o.), Δ% [2, 5]: +180% | Number of withdrawal responses, Mean ± s.e.m. [2, 5]: 0.6 ± 0.5 | Number of withdrawal responses, compared with Vehicle (p.o.), Δ% [2, 5]: −94% | Total duration of withdrawal responses (s), Mean ± s.e.m. [2, 5]: 0.0 ± 0.0 s | Total duration of withdrawal responses, compared with Vehicle (p.o.), Δ% [2, 5]: −100%
